Legend:
[1] = Crystal form stability: suspension in water stirred 24 hours or storage, solids analyzed by X-ray diffraction; type: physicochemical; details: for Crystalline form after stirring in water: suspension in water, 24 hours, X-ray diffraction
Experimental: Samples of a mixture of crystalline Form I and Form II of Compound (I) were added to water at room temperature or 60° C. to form suspensions, which were stirred for 24 hours, and solids were analyzed by X-ray diffraction.

[2] = Stability of thin layers under high temperature, high humidity, light and ambient conditions, impurity by HPLC; type: physicochemical; details: day 10, HPLC
[3] = as above; type: physicochemical
Experimental: Thin layers (≤5 mm) of crystalline Form I were placed under high temperature (60±2° C.), high humidity (92.5%±2% humidity), light (visible light 4500 lx±500 lx) and ambient temperature (25±2° C., 65%±5% humidity) for 15 days, and samples were analyzed by HPLC on day 5, 9 and 15.

[4] = Hygroscopicity: weight gain at controlled relative humidity; type: physicochemical; details: 25° C.±1° C., 24 hours
[5] = In vivo pharmacokinetics: memantine in plasma after intramuscular administration to rats; details: memantine measured in rat plasma, memantine solution 17.5 mg/kg
Experimental: Compound (I) was tested in an experiment to determine its in vivo conversion to the active compound memantine.
Analytical LC/MS/MS systems: Agilent 1200 Series vacuum degasser, dual-injection pump, orifice autosampler, column incubator, charged spray ionization (ESI) source, and Agilent G6430 three-stage quadrupole mass spectrometer. The quantitative analysis is performed in the MRM mode, with the following MRM conversion parameters:
Waters XBridge TMC18, 2.1×30 mm, 3.5 μM column; 20 μL of sample was injected in each run. Conditions: The mobile phase included […]+2 mM ammonium formate+0.1% formic acid (A) and methanol+2 mM ammonium formate+0.1% formic acid (B). The flow rate was 0.35 mL/min. The mobile phase gradient is as follows: […]
Additional instruments and reagents included Agilent 6330 Series LC/MS/MS spectrometer equipped with a G1312A Binary Injection Pump, G1367A autosampler and MS/MS Detector for analysis; LC/MS/MS spectrometer with ESI source. Suitable cationic model treatments and MRM conversion were used for each analyte using standard solution for optimal analysis. Waters XBridge TMC18 was used with specifications of 2.1×30 mm, 3.5 μM. The reaction was carried out with […] ammonium formate+0.1% formic acid (A) and methanol+2 mM ammonium formate+0.1% formic acid (B). […]

Which results are given for `CC12CC3CC(C)(C1)CC(NC(=O)OCOC(=O)c1ccccc1)(C3)C2` (mixture of isomers) [((((1r,3R,5S,7r)-3,5-dimethyladamantan-1-yl)carbamoyl)oxy)methyl benzoate]?
Crystalline form after stirring in water ([1]; 60° C.): completely converted to crystalline Form I; Crystalline form after stirring in water ([1]; room temperature): remained as a mixture of crystalline Form I and Form II

With `CC12CC3CC(C)(C1)CC(NC(=O)OCOC(=O)c1ccccc1)(C3)C2` [Crystalline Form II, ((((1r,3R,5S,7r)-3,5-dimethyladamantan-1-yl)carbamoyl)oxy)methyl benzoate] as the compound, how does the “Crystalline form upon long term storage” value ([1]; long term storage at room temperature) read?
Its value is “converted to Form I”.

What does the source list for `CC12CC3CC(C)(C1)CC(NC(=O)OCOC(=O)c1ccccc1)(C3)C2` [crystalline Form I, ((((1r,3R,5S,7r)-3,5-dimethyladamantan-1-yl)carbamoyl)oxy)methyl benzoate]?
percentage of impurity ([2]; 60 ± 2° C.): 0.02%; percentage of impurity ([2]; 92.5% ± 2% humidity): 0.06%; percentage of impurity ([2]; visible light 4500 lx±500 lx): 0.03%; percentage of impurity ([3]; 60 ± 2° C., day 0, HPLC): 0.04%; percentage of impurity ([3]; 60 ± 2° C., day 5, HPLC): 0.04%; percentage of impurity ([3]; 60 ± 2° C., day 15, HPLC): 0.02%; percentage of impurity ([3]; 92.5% ± 2% humidity, day 0, HPLC): 0.04%; percentage of impurity ([3]; 92.5% ± 2% humidity, day 5, HPLC): 0.06%; percentage of impurity ([3]; 92.5% ± 2% humidity, day 15, HPLC): 0.02%; percentage of impurity ([3]; ambient temperature (25±2° C., 65%±5% humidity), day 0, HPLC): 0.04%; percentage of impurity ([3]; ambient temperature (25±2° C., 65%±5% humidity), day 5, HPLC): 0.04%; percentage of impurity ([3]; ambient temperature (25±2° C., 65%±5% humidity), day 10, HPLC): 0.04%; percentage of impurity ([3]; ambient temperature (25±2° C., 65%±5% humidity), day 15, HPLC): 0.01%; chemical change under stress conditions ([3]; high temperature, high humidity, light and ambient temperature for 15 days): did not exhibit significant chemical change; percentage of impurity ([3]; visible light 4500 lx±500 lx, day 0, HPLC): 0.04%; percentage of impurity ([3]; visible light 4500 lx±500 lx, day 5, HPLC): 0.03%; percentage of impurity ([3]; visible light 4500 lx±500 lx, day 15, HPLC): 0.02%; hygroscopicity ([4]; 80% and 92.5% RH): lack of hygroscopicity; weight gain ([4]; saturated KNO3 aqueous solution (92.5%±2% RH)): 0.06%; weight gain ([4]; saturated NH4Cl aqueous solution (80%±2% RH)): 0.03%

Which T1/2 [5] does the source give for `CC12CC3CC(C)(C1)CC(N)(C3)C2` [memantine] here?
The T1/2 was 4 h.
